From patent publication US7217710B2, “Substituted pyrazolopyrimidines” (SmithKline Beecham Corporation, priority 2001, dated 2007) come the findings set out here.

Holding throughout (type): biochemical
In one assay the target is T1, GST-VEGFR2 (Homo sapiens, UniProt P35968).
T1 construct: GST-VEGFR2, baculovirus expressed recombinant constructs of the intracellular domains; made in house
Description: VEGF-R2 Enzyme Assay (VEGF-E2), LANCE method. For orientation: TR-FRET usually uses a lanthanide donor and a delayed reading to cut background.

The target in assay [1] is T2, GST-TIE2 (intracellular domains of human TIE2) (Homo sapiens, UniProt Q02763).
T2 construct: made in house
T2 sequence (Q02763 762-1104): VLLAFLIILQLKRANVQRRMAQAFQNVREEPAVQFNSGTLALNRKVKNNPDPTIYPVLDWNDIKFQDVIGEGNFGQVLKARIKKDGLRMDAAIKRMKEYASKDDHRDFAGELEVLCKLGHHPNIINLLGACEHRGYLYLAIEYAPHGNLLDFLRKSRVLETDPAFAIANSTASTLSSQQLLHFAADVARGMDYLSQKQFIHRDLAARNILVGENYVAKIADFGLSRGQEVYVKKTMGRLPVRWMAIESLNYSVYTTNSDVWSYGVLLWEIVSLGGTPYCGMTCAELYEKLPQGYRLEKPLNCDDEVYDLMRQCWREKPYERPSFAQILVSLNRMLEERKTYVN
The assay is described as follows: TIE-2 Enzyme Assay (TIE2-E2), LANCE method. Particulars: for IC50: read-out: TIE2 PIC50 TIE2-E2 assay. From the text: TIE-2 Enzyme Assay (TIE2-E2
The TIE-2 enzyme assay uses the LANCE method (Wallac) and GST-TIE2, baculovirus-expressed recombinant constructs of the intracellular domains of human TIE2 (amino acids 762–1104, GenBank Accession # L06139) tagged by GST). The method measures the ability of the purified enzymes to catalyse the transfer of the γ-phosphate from ATP onto tyrosine residues in a biotinylated synthetic peptide, D1–15 (biotin-C6-LEARLVAYEGWVAGKKKamide). This peptide phosphorylation is detected using the following procedure: for enzyme preactivation, GST-TIE2 is incubated for 2 hours at room temperature with 80 μM ATP, 10 mM MgCl2, 0.1 mg/ml BSA, 0.01% Tween 20 and 1 mM DTT in 100 mM HEPES buffer (pH7.4). 5 nM preactivated GST-TIE2 is incubated for 2 hours at room temperature in 96 well plates with 1 uM D1–15 peptide, 80 uM ATP, 10 mM MgCl2, 0.1 mg/ml BSA, 0.01% Tween 20 and titrated test compound (diluted from a 10 mM stock in DMSO, final DMSO concentration is 2.4%) in 100 mM HEPES (pH7.4). The reaction is stopped by the addition of EDTA (final concentration 45 mM). Streptavidin linked-APC (allophycocyanin, PerkinElmer) and europium-labeled anti-phosphotyrosine antibody (PerkinElmer) are then added at the final concentration of 8 nM and 1 nM, respectively. The APC signal is measured using an Wallac Multilabel 1420 counter. (Wallac Berthold Japan). The percent inhibition of activity is calculated relative to blank control wells. The concentration of test compound that inhibits 50% of activity (IC50) is interpolated using nonlinear regression (Levernberg-Marquardt) and the equation, y=Vmax (1−x/(K+x))+Y2, where “K” is equal to the IC50. The IC50 values are converted to pIC50 values, i.e., −log IC50 in Molar concentration.

Assay [2] concerns the target T3, catalytic domain of human VEGFR3 (Homo sapiens, UniProt P35916, H890Q).
T3 construct: made in house; host or cells: Sf9 insect cells (baculovirus, pFastBac1)
Description: VEGFR-3 Homogenous Time-Resolved Fluorescence Assay (VEGFR-3-HTRF). Conditions: read-out: VEGFR3 PIC50 VEGFR-3-HTRF assay. The text has this: VEGFR—3-Homogenous Time-Resolved Fluorescence Assay (VEGFR-3-HTRF)
This assay assesses Vascular Endothelial Growth Factor 3 (VEGFR3) tyrosine kinase inhibitory activity in substrate phosphorylation assays. The assay examines the ability of small molecule organic compounds to inhibit the tyrosine phosphorylation of a peptide substrate.
The substrate phosphorylation assays use the VEGFR3 catalytic domain, which is expressed in Sf. 9 insect cells as an amino-terminal GST-tagged fusion protein. The catalytic domain of human VEGFR3 (AA residues #819–1298 based upon GenBank Accession #XM003852) is cloned by PCR from human Placenta Marathon Ready cDNA (Clontech). The PCR product is subcloned into pFastBac1 vector containing an N-terminal GST tag. The resulting pFB/GST/VEGFR3icd vector is used to generate a recombinant baculovirus for protein expression. The VEGFR3 catalytic domain translated sequence is:
Autophosphorylation allows enzymes to be fully activated prior to addition to peptide substrates. The assays are performed using enzyme that has been activated by autophosphorylation via preincubation in buffer with ATP and magnesium. Activated enzyme is then diluted and added to titrated compound and the substrate mix.
200 nM VEGFR3 enzyme is activated for 45 minutes at room temperature by incubating the enzyme in buffer containing 100 mM HEPES (pH7.2), 75 μM ATP, 0.3 mM DTT, 0.1 mg/mL BSA, and 10 mM MgCl2. After activation, VEGFR3 is diluted 100-fold into 2× dilution buffer: 200 mM HEPES (pH 7.5), 0.2 mg/mL BSA, 0.6 mM DTT. 20 μL of the diluted enzyme mix is added to 20 μL of 2× substrate mix (150 μM ATP, 20 mM MgCl2, 0.72 μM biotinylated peptide) in the assay plates. Final assay conditions are: 100 mM HEPES (pH 7.2), 75 μM ATP, 10 mM MgCl2, 0.1 mg/mL BSA, 0.3 mM DTT, 0.36 μM biotinylated peptide, and 1 nM VEGFR3 enzyme. Assay plates are incubated for 1.5 hours at room temperature before the addition of 30 μL 100 mM EDTA to the wells to stop the enzymatic reaction. 40 μL/well of HTRF mix are then added to the assay plates for the detection of phosphorylated substrate. Final assay concentrations are: 100 mM HEPES (pH7.2), 0.1 mg/mL BSA, 15 nM streptavidin-labeled allophycocyanin (PerkinElmer), and 1 nM europium-labeled anti-phosphotyrosine antibody (PerkinElmer). Assay plates are left unsealed and are counted in a Wallac Multilabel Counter 1420 (PerkinElmer).
The data for dose responses are plotted as % Control calculated with the data reduction formula 100*(U1–C2)/(C1–C2) versus concentration of compound where U is the unknown value, C1 is the average control value obtained for DMSO , and C2 is the average control value obtained for 0.1M EDTA. Data are fitted to the curve described by: y=((Vmax*x)/(K+x)) where Vmax is the upper asymptote and K is the IC50.

T3 sequence (P35916 with tags, fused parts or gaps isoform P35916-1 H890Q): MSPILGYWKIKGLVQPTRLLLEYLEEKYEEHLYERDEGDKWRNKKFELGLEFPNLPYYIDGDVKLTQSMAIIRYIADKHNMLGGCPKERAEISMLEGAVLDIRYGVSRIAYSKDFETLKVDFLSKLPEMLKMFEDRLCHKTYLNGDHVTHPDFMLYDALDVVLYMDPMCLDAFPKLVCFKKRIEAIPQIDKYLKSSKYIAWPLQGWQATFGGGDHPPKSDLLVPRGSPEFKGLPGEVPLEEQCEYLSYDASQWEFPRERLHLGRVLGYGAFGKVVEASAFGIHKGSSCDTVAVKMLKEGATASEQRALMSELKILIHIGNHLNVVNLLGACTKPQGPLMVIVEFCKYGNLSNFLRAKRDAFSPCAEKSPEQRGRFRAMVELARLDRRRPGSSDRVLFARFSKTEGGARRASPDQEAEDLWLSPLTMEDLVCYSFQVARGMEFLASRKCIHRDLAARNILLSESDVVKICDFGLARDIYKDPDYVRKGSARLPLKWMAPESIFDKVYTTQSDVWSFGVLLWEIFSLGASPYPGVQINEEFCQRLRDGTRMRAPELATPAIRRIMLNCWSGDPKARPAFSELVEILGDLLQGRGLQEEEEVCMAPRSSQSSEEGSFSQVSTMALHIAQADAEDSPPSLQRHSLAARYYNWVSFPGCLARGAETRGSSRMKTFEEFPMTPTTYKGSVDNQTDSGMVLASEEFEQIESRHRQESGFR
T1 sequence (P35968 786-1356 limits assumed): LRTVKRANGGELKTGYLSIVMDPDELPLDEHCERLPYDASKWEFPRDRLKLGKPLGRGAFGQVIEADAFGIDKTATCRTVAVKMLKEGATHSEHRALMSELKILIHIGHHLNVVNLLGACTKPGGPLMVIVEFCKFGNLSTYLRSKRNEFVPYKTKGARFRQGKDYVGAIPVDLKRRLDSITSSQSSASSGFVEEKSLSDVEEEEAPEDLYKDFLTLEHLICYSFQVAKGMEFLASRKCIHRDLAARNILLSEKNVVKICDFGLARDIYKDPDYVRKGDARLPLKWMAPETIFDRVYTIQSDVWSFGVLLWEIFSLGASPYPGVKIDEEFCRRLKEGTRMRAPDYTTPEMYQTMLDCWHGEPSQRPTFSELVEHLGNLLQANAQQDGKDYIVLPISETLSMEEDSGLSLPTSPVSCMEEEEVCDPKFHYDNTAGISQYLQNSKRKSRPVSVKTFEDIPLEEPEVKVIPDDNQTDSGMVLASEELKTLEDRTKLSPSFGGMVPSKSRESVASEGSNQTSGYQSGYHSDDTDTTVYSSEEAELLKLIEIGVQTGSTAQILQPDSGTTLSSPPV

In the case of `Cn1nc(-c2ccc(NC(=O)Nc3cc(C(F)(F)F)cc(C(F)(F)F)c3)cc2)c2cnc(NCCN3CCOCC3)nc21` [Example 41, 1-(Bis-trifluoromethyl-phenyl)-3-{4-[1-methyl-6-(2-morpholin-4-yl-ethylamino)-1H-pyrazolo[3,4-d]pyrimidin-3-yl]-phenyl}-urea], the “VEGFR2 PIC50 VEGFR-E2 assay” value at GST-VEGFR2 is recorded as “−− (−− = PIC50 less than 5.00)”. Also, the “TIE2 PIC50 TIE2-E2 assay” value in assay [1] is listed as “++ (++ = PIC50 = 6.00 to less than 7.00)”.
In the case of `Cn1nc(-c2ccc(NC(=O)Nc3cccc(C(F)(F)F)c3)cc2)c2cnc(NCCN3CCOCC3)nc21` [Example 42, 1-{4-[1-Methyl-6-(2-morpholin-4-yl-ethylamino)-1H-pyrazolo[3,4-d]pyrimidin-3-yl]-phenyl}-3-(3-trifluoromethyl-phenyl)-urea], the IC50 is not above 39.8 nM in assay [1] and 1000 to 10000 nM in assay [2].
With `CN1CCCC1CCNc1ncc2c(-c3ccc(NS(=O)(=O)c4cccc(Cl)c4Cl)cc3)nn(C)c2n1` (stereo not shown) [Example 108, 2,3-Dichloro-N-(4-{1-methyl-6-[2-(1-methyl-pyrrolidin-2-yl)-ethylamino]-1H-pyrazolo[3,4-d]pyrimidin-3-yl]-phenyl}-benzenesulfonamide], the IC50 in assay [1] is more than 10000 nM.
On the same count and under the same terms, for `Cn1nc(-c2ccc(NS(=O)(=O)c3cccc(Cl)c3Cl)cc2)c2cnc(NCCCCN3CCCC3)nc21` [Example 110, 2,3-Dichloro-N-{4-[1-methyl-6-(4-pyrrolidin 1-yl-butylamino)-1H-pyrazolo[3,4-d]pyrimidin-3-yl]-phenyl}-benzenesulfonamide] the value was more than 10000 nM.
Regarding `CN1CCN(CCCNc2ncc3c(-c4ccc(NS(=O)(=O)c5cccc(Cl)c5Cl)cc4)nn(C)c3n2)CC1` [Example 111, 2,3-Dichloro-N-(4-{1-methyl-6-[3-(4-methyl-piperazin-1-yl)-propylamino]-1H-pyrazolo[3,4-d]pyrimidin-3-yl]-phenyl}-benzenesulfonamide], the IC50 is 1000 to 10000 nM in assay [1] and more than 10000 nM in assay [2].
In the same order, the values of `CC(=O)NCCNc1ncc2c(-c3ccc(NS(=O)(=O)c4cccc(Cl)c4Cl)cc3)nn(C)c2n1` [Example 115, 2,3-Dichloro-N-{4-[1-methyl-6-(2-acetylamino-ethylamino)-1H-pyrazolo[3,4-d]pyrimidin-3-yl]-phenyl}-benzenesulfonamide] are more than 10000 nM and 1000 to 10000 nM.
In the same order, the values of `Cn1nc(-c2ccc(NS(=O)(=O)c3cccc(Cl)c3Cl)cc2)c2cnc(NCCCn3ccnc3)nc21` [Example 116, 2,3-Dichloro-N-{4-[1-methyl-6-(3-imidazol-1-yl-propylamino)-1H-pyrazolo[3,4-d]pyrimidin-3-yl]-phenyl}-benzenesulfonamide] are more than 10000 nM and more than 10000 nM.
On to `Cn1cccc1CCNc1ncc2c(-c3ccc(NS(=O)(=O)c4cccc(Cl)c4Cl)cc3)nn(C)c2n1` [Example 117, 2,3-Dichloro-N-(4-{1-methyl-6-[2-(1-methyl-1H-pyrrol-2-yl)ethylamino]-1H-pyrazolo[3,4-d]pyrimidin-3-yl]-phenyl}-benzenesulfonamide], for which the IC50 in assay [2] lay in the range of 1000 to 10000 nM.
Turning to `Cn1nc(-c2ccc(NS(=O)(=O)c3cccc(Cl)c3Cl)cc2)c2cnc(NC(CO)CO)nc21` [Example 118, 2,3-Dichloro-N-{4-[1-methyl-6-(2-hydroxy-1-hydroxymethyl-ethylamino)-1H-pyrazolo[3,4-d]pyrimidin-3-yl]-phenyl}-benzenesulfonamide], the IC50 in assay [1] was more than 10000 nM.
Consider `Cn1nc(-c2ccc(NS(=O)(=O)c3cccc(Cl)c3Cl)cc2)c2cnc(NCCCN)nc21` [Example 119, 2,3-Dichloro-N-{4-[1-methyl-6-(3-amino-propylamino)-1H-pyrazolo[3,4-d]pyrimidin-3-yl]-phenyl}-benzenesulfonamide], for which the IC50 is 1000 to 10000 nM in assay [1] and more than 10000 nM in assay [2].
Take `Cn1nc(-c2ccc(NS(=O)(=O)c3cccc(Cl)c3Cl)cc2)c2cnc(NCCCCN)nc21` [Example 120, 2,3-Dichloro-N-{4-[1-methyl-6-(4-amino-butylamino)-1H-pyrazolo[3,4-d]pyrimidin-3-yl]-phenyl}-benzenesulfonamide]: the IC50 in assay [1] is 1000 to 10000 nM.
Take `Cn1nc(-c2ccc(NS(=O)(=O)c3cccc(Cl)c3Cl)cc2)c2cnc(NCCCCNC(=N)N)nc21` [Example 121, 2,3-Dichloro-N-{4-[1-methyl-6-(4-guanidino-butylamino)-1H-pyrazolo[3,4-d]pyrimidin-3-yl]-phenyl}-benzenesulfonamide]: the IC50 is 1000 to 10000 nM in assay [1] and more than 10000 nM in assay [2].
On to `Cn1nc(-c2ccc(NC(=O)Nc3cc(C(F)(F)F)ccc3F)c(F)c2)c2cnc(NCCCN3CCOCC3)nc21` [Example 127], for which the IC50 in assay [1] was not above 39.8 nM.
Turning to `CC1CCCCN1CCCNc1ncc2c(-c3ccc(NC(=O)Nc4cc(C(F)(F)F)ccc4F)c(F)c3)nn(C)c2n1` (stereo not shown) [Example 128], in assay [1], the IC50 is not above 39.8 nM.
The same measure, in the same setting: the same measure for `CCN(CC)CCCNc1ncc2c(-c3ccc(NC(=O)Nc4cc(C(F)(F)F)ccc4F)c(F)c3)nn(C)c2n1` [Example 129]: not above 39.8 nM; for `CN1CCCC1CCNc1ncc2c(-c3ccc(NC(=O)Nc4cc(C(F)(F)F)ccc4F)c(F)c3)nn(C)c2n1` (stereo not shown) [Example 130]: not above 39.8 nM.
On the same count and under the same terms, for `CN1CCN(CCCNc2ncc3c(-c4ccc(NC(=O)Nc5cc(C(F)(F)F)ccc5F)c(F)c4)nn(C)c3n2)CC1` [Example 131] the value was not above 39.8 nM.
In the case of `Cn1nc(-c2ccc(NC(=O)Nc3cc(C(F)(F)F)ccc3F)cc2)c2cnc(NCCc3ccncc3)nc21` [Example 140, 1-(2-Fluoro-5-trifluoromethyl-phenyl)-3-{4-[(1-methyl-6-(2-pyridin-4-yl-ethylamino)-1H-pyrazolo[3,4-d]pyrimidin-3-yl]-phenyl]} urea], the values for the IC50 in assay [1] and in assay [2] were 39.8 to 100 nM and 100 to 1000 nM, respectively.
In the same order, the values of `Cn1nc(-c2ccc(NC(=O)Nc3cc(C(F)(F)F)ccc3F)cc2)c2cnc(NCCc3cccnc3)nc21` [Example 141] are 100 to 1000 nM and more than 10000 nM.
`Cn1nc(-c2ccc(NC(=O)Nc3cc(C(F)(F)F)ccc3F)cc2)c2cnc(NCCc3ccccn3)nc21` [Example 142]: in assay [1], the IC50 is 100 to 1000 nM.
The same measure, in the same setting: the same measure for `Cn1nc(-c2ccc(NC(=O)Nc3cc(C(F)(F)F)ccc3F)cc2)c2cnc(NCc3cccnc3)nc21` [Example 144, 1-(2-Fluoro-5-trifluoromethyl-phenyl)-3-{4-[(1-methyl-6-(pyridin-3-ylmethyl)-amino)-1H-pyrazolo[3,4-d]pyrimidin-3-yl]-phenyl} urea]: 100 to 1000 nM; for `CCNc1ncc2c(-c3ccc(NC(=O)Nc4ccc(C(F)(F)F)cc4F)cc3)nn(C)c2n1` [Example 162]: 1000 to 10000 nM.
